Results published in patent US7662842B2, “Thiazolidinone amides, thiazolidine carboxylic acid amides, and serine amides, including polyamine conjugates thereof, as selective anti-cancer agents” (Ohio State Univesity Research Foundation, priority 2003, dated 2010).
pIC50: −log10 of the molar value.

What was measured:
LNCaP cells [1] = assay: DNA fragmentation by agarose gel electrophoresis; type: cell-based, human; settings: treatment for 24 to […], 3-50 μM, FIGS. 4A-B
Procedure: In FIG. 4B, the dose and exposure time are indicated for compound 5 as follows: lane 1, 100 bp DNA marker; lane 2, 5 μM for 24 h; lane 3, 5 μM for 48 h; lane 4, 5 μM for 72 h; lane 5, 5 μM for 96 h; lane 6, 3 μM for 96 h; lane 7, 8 μM for 48 h; and lane 8, 8 μM for 72 h.

WM-164 cells = assay: Sulforhodamine B assay in melanoma cells, WM-164; type: cell-based; settings: Homo sapiens, WM164, read-out: IC50 WM-164; SRB assay, 48 h incubation; melanoma cell line
Procedure: (§1) SKMEL-188 cells were cultured in Ham's F10 medium (Gibco Invitrogen, Inc., Grand Island, N.Y.) plus 5% fetal bovine serum (Cellgro Mediatech, Inc., Herndon, Va.) and 1% antibiotic/antimycotic mixture (Sigma-Aldrich, Inc., St. Louis, Mo.). WM-164 cells (gift of Dr. Meenhard Herlyn, Wistar Inst., Philadelphia, Pa.) and human dermal fibroblasts (Cascade Biologics, Inc., Portland, Oreg.) were cultured in DMEM medium (Cellgro Mediatech, Inc.) supplemented with 5% fetal bovine serum, 1% antibiotic.antimycotic mixture and bovine insulin ([…], Sigma-Aldrich, Inc.). Human dermal fibroblasts were used as a control to examine the effects of compounds on stromal environment. Thus, the effect of the various compounds on melanoma cells versus fibroblasts would document their potential selectivity.
(§2) Sulforhodamine B Assay: Cells were seeded into 96-well plates at 5000 cells/well. After 12 hours, media were changed and serial dilutions of compounds were added. Cells were incubated with each compound for 48 hours. Fresh media containing the test compound were changed ever 24 hours. Thereafter, total cell protein corresponding to cell numbers (both viable and non-viable cells) were measured using the sulforhodamine B (SRB) assay according to manufacturer's protocol (Sigma-Aldrich, Inc.) (Rubinstein et al., “Comparison of in vitro Anticancer Drug-screening Data Generated with a Tetrazolium Assay Versus a Protein Assay Against a Diverse Panel of Human Tumor Cell Lines,” J. Natl. Cancer Inst. 82:1113-1118 (1990); Dothager et al., “Synthesis and Identification of Small Molecules that Potently Induce Apoptosis in Melanoma Cells Through GI Cell Cycle Arrest,” J. Am. Chem. Soc. 127:8686-8696 (2005), each of which is hereby incorporated by reference in its entirety). Briefly, cells were fixed with trichloracetic acid, washed and incubated with sulforhodamine B for 30 minutes. After another wash, dye incorporated into the cells was solubilized and measured using a plate reader at 565 nm.
(§3) Statistical Analysis: Data is presented as mean±SEM (n=6-8). […] Statistical analyses were performed with Student's t-test (*p<0.05; **p<0.005).
(§4) DTIC and Taxol were assayed in the same way for comparison and served as internal quality controls in the different batches of assay. For comparison, the activities of 5R and 5S were measured.

human dermal fibroblasts = assay: Sulforhodamine B assay, fibroblast control cells; type: cell-based; settings: Homo sapiens, Fibroblast, 48 h, SRB assay, 48 h incubation
Procedure: as §1, §2, §3, §4

SKMEL-188 melanoma cells = assay: Sulforhodamine B assay in melanoma cells, SKMEL-188; type: cell-based; settings: SK-MEL-188, 48 h, SRB assay, 48 h incubation; melanoma cell line
Procedure: as §1, §2, §3, §4

[2] = system: RH7777 rat hepatoma cells; assay: SRB cytotoxicity assay, RH7777 control cell line; type: cell-based; settings: for pIC50: Rattus norvegicus, RH7777, SRB assay, 96 h exposure, control cell line
Procedure: (§5) For in vitro cytotoxicity screening, 1000 to 5000 cells were plated into each well of 96-well plates depending on growth rate, and exposed to different concentrations of a test compound for 96 h in three to five replicates. All the compounds were dissolved in dimethyl sulfoxide at 5 to 20 mM, and diluted to desired concentrations in complete culture medium. Cell numbers at the end of the drug treatment were measured by the SRB assay (Gududuru et al., “Synthesis and Biological Evaluation of Novel Cytotoxic Phospholipids for Prostate Cancer,” Bioorg. Med. Chem. Lett. 14:4919-4923 (2004); Rubinstein et al., “Comparison of in vitro Anticancer-Drug-Screening Data Generated with a Tetrazolium Assay Versus a Protein Assay Against a Diverse Panel of Human Tumor Cell Lines,” J. Natl. Cancer Inst. 82:1113-1118 (1990), each of which is hereby incorporated by reference in its entirety). Briefly, the cells were fixed with 10% of trichloroacetic acid, stained with 0.4% SRB, and the absorbances at 540 nm was measured using a plate reader (DYNEX Technologies, Chantilly, Va.). […] A sandwich ELISA (Roche, Mannheim, Germany) utilizing monoclonal antibodies specific for DNA and histones was used to quantify degree of apoptosis induced by the analogs after 72 h exposure. This assay measures DNA-histone complexes (mono- and oligonucleosomes) released into cytoplasm from the nucleus during apoptosis.

[3] = system: PPC-1 human prostate cancer cells; assay: SRB cytotoxicity assay, PPC-1; type: cell-based; settings: Homo sapiens, PPC-1, 96 h exposure, prostate cancer cell line
Procedure: (§6) Dr. Mitchell Steiner at University of Tennessee Health Science Center, kindly provided PPC-1 and TSU-Pr1 cells.
as §5

[4] = system: OVCAR-3 human ovarian cancer cell line; assay: SRB cytotoxicity assay, OVCAR-3; type: cell-based
Procedure: (§7) For in vitro cytotoxicity screening, 1000 to 5000 cells were plated into each well of 96-well plates depending on growth rate, and exposed to different concentrations of a test compound for 96 h in three to five replicates. All the compounds were dissolved in dimethyl sulfoxide at 5 to 20 mM, and diluted to desired concentrations in complete culture medium. Cell numbers at the end of the drug treatment were measured by the SRB assay (Gududuru et al., “Synthesis and Biological Evaluation of Novel Cytotoxic Phospholipids for Prostate Cancer,” Bioorg. Med. Chem. Lett. 14:4919-4923 (2004); Rubinstein et al., “Comparison of in vitro Anticancer-Drug-Screening Data Generated with a Tetrazolium Assay Versus a Protein Assay Against a Diverse Panel of Human Tumor Cell Lines,” J. Natl. Cancer Inst. 82:1113-1118 (1990), each of which is hereby incorporated by reference in its entirety). Briefly, the cells were fixed with 10% of trichloroacetic acid, stained with 0.4% SRB, and the absorbances at 540 nm was measured using a plate reader (DYNEX Technologies, Chantilly, Va.). […] A sandwich ELISA (Roche, Mannheim, Germany) utilizing monoclonal antibodies specific for DNA and histones was used to quantify degree of apoptosis induced by the analogs after 72 h exposure. This assay measures DNA-histone complexes (mono- and oligonucleosomes) released into cytoplasm from the nucleus during apoptosis. RH7777 cells were employed because of nonspecific cytotoxicity of compound 4 in receptor-negative cells as well as receptor-positive prostate cancer cells.
(§8) In vitro cytotoxicity assay was performed by the same sulforhodamine B (SRB) assay (described above). The compounds shown in Table 8 below where tested for activity against the breast cancer and ovarian cancer cell lines.

[5] = system: TSU-Pr1 human prostate cancer cells; assay: SRB cytotoxicity assay, TSU-Pr1; type: cell-based; settings: Homo sapiens, TSU-Pr1, 96 h exposure, prostate cancer cell line
Procedure: as §6, §5

[6] = system: CaOv-3 human ovarian cancer cell line; assay: SRB cytotoxicity assay, CaOv-3; type: cell-based
Procedure: as §7, §8

[7] = system: LNCaP human prostate cancer cells; assay: SRB cytotoxicity assay, LNCaP; type: cell-based; settings: Homo sapiens, LNCaP, 96 h exposure, prostate cancer cell line
Procedure: as §5

[8] = system: DU-145 human prostate cancer cells; assay: SRB cytotoxicity assay, DU-145; type: cell-based; settings: Homo sapiens, DU-145, read-out: IC50 DU-145, 96 h exposure, prostate cancer cell line
Procedure: as §5

[9] = system: PC-3 human prostate cancer cells; assay: SRB cytotoxicity assay, PC-3; type: cell-based; settings: Homo sapiens, 96 h exposure, prostate cancer cell line
Procedure: as §5

[10] = system: SKOv-3 human ovarian cancer cell line; assay: SRB cytotoxicity assay, SKOv-3; type: cell-based; settings: SK-OV-3
Procedure: as §7, §8

PC-3 cells = assay: Apoptosis sandwich ELISA (DNA-histone complex), PC-3; type: cell-based, human
Procedure: as §7
(§9) From the LPL receptor mRNA expression studies (Table 2), it was evident that these cell lines serve as an excellent model system to explore the effects of LPL receptor. Given the structural similarity of SAPs to ceramide (and the known ability of ceramide to induce apoptosis), it was then determined whether the antiproliferative effects of thiazolidine analogs were mediated via apoptotic events. The ability of the analogs to induce apoptosis in LNCaP, PC-3, and RH7777 cells was examined using a quantitative sandwich ELISA that measures DNA-histone complex released during apoptosis. The enrichment factor calculated (as ratio of OD405 in treated and un-treated cells) provides a quantitative assessment of the degree of apoptosis induced. Initially, only two compounds (4 & 5) were used for this study. Apoptotic activity of analog (compound 4) was selective in prostate cancer cells despite nonselective cytotoxicity in RH7777 negative control cells (see Table 5 below). Analog compound 5 induced apoptosis in PC-3 and LNCaP cells, but to a lesser extent in PC-3 cells perhaps due to lower potency in this cell line.

LNCaP cells [11] = assay: Apoptosis sandwich ELISA (DNA-histone complex), LNCaP; type: cell-based, human
Procedure: as §7, §9

Compound | pIC50 (WM-164 cells) | pIC50 (SKMEL-188 melanoma cells) | melting point [°C] | pIC50 (human dermal fibroblasts) | pIC50 [2] | pIC50 [3] | pIC50 [4] | pIC50 [5] | pIC50 [6] | pIC50 [7] | pIC50 [8] | pIC50 [9] | pIC50 [10] | other results
CCCCCCCCCCCCCCCCCCNC(=O)[C@@H]1CSC(c2ccccc2)N1.Cl (mixture of isomers) [Compound 5, (2RS, 4R)-2-Phenylthiazolidine-4-carboxylic acid octadecylamide Hydrochloride] | < 4.30 | 4.40 |  | < 4.30 |  |  |  |  |  |  |  |  |  | DNA fragmentation (apoptosis) in LNCaP cells (LNCaP cells [1]): induce cell apoptosis
CCCCCCCCCCCCCCCCCCNC(=O)[C@H]1CSC(c2ccccc2)N1 (stereo partly drawn) [5(S), (4S)—N-octadecyl-2-phenylthiazolidine-4-carboxamide] | 4.74 | 4.62 |  | 4.56 |  |  |  |  |  |  |  |  |  | Apoptosis enrichment factor (ratio of OD405 in treated and un-treated cells), PC-3 (PC-3 cells; 2 μM for 72 h): 1.1; Apoptosis enrichment factor (ratio of OD405 in treated and un-treated cells), PC-3 (PC-3 cells; 5 μM for 72 h): 1.2; Apoptosis enrichment factor (ratio of OD405 in treated and un-treated cells), PC-3 (PC-3 cells; 10 μM for 72 h): 1.4; Apoptosis enrichment factor (ratio of OD405 in treated and un-treated cells), PC-3 (PC-3 cells; 20 μM for 72 h): 2.7; Apoptosis enrichment factor (ratio of OD405 in treated and un-treated cells), LNCaP (LNCaP cells [11]; 2 μM for 72 h): 3.1; Apoptosis enrichment factor (ratio of OD405 in treated and un-treated cells), LNCaP (LNCaP cells [11]; 5 μM for 72 h): 5.4; Apoptosis enrichment factor (ratio of OD405 in treated and un-treated cells), LNCaP (LNCaP cells [11]; 10 μM for 72 h): 25.8; Apoptosis enrichment factor (ratio of OD405 in treated and un-treated cells), LNCaP (LNCaP cells [11]; 20 μM for 72 h): 46.8; Induction of apoptosis in LNCaP and PC-3 cells (LNCaP cells [11]; LNCaP and PC-3 cells, lesser extent in PC-3): significantly induced apoptosis
CCCCCCCCCCCCCCCCCCNC(=O)C1CSC(c2ccoc2)N1 (stereo not drawn) [Compound 12, 2-(furan-3-yl)-N-octadecylthiazolidine-4-carboxamide] |  |  |  |  | 4.98 | 5.96 | 5.64 | 5.38 | 5.11 | 5.77 | 5.18 | 5.09 | 5.27 | Fold less selective against RH7777 cell line than compound 5 ([2]; relative to compound 5): 3 fold

Continued, in another order:

pIC50 (WM-164 cells) | pIC50 (SKMEL-188 melanoma cells) | melting point [°C] | Compound | pIC50 (human dermal fibroblasts) | pIC50 [2] | pIC50 [3] | pIC50 [4] | pIC50 [5] | pIC50 [6] | pIC50 [7] | pIC50 [8] | pIC50 [9] | pIC50 [10] | other results
 |  | 50 | CCCCCCCCCCCCCCCCCCNC(=O)[C@@H]1CSC(c2cccc(O)c2)N1 (mixture of isomers) [Compound 14, (2RS, 4R)-2-(3-Hydroxy-phenyl)-thiazolidine-4-carboxylic acid octadecylamide] |  | 4.51 | 5.92 | 5.09 | 5.40 | 4.74 | 5.77 | 5.24 | 5.17 | 4.96 | 
5.51 | 5.62 | 103 | CCCCCCCCCCCCCCCCCCNC(=O)[C@@H]1CSC(c2ccc(OC)c(OC)c2)N1.Cl (mixture of isomers) [Compound 16, (2RS, 4R)-2-(3,4-Dimethoxy-phenyl)-thiazolidine-4-carboxylic acid octadecylamide Hydrochloride] | < 5.00 | 4.99 | 6.24 | 5.92 | 5.62 | 5.26 | 6.07 | 5.35 |  | 5.44 | 
